In the Kinase Knowledgebase extract (Sharma et al. 2016):

target: PIK3CG (human) (UniProt P48736); assay: Inhibition of PIK3CG Kinase Activity
Sequence (P48736 whole entry, looked up): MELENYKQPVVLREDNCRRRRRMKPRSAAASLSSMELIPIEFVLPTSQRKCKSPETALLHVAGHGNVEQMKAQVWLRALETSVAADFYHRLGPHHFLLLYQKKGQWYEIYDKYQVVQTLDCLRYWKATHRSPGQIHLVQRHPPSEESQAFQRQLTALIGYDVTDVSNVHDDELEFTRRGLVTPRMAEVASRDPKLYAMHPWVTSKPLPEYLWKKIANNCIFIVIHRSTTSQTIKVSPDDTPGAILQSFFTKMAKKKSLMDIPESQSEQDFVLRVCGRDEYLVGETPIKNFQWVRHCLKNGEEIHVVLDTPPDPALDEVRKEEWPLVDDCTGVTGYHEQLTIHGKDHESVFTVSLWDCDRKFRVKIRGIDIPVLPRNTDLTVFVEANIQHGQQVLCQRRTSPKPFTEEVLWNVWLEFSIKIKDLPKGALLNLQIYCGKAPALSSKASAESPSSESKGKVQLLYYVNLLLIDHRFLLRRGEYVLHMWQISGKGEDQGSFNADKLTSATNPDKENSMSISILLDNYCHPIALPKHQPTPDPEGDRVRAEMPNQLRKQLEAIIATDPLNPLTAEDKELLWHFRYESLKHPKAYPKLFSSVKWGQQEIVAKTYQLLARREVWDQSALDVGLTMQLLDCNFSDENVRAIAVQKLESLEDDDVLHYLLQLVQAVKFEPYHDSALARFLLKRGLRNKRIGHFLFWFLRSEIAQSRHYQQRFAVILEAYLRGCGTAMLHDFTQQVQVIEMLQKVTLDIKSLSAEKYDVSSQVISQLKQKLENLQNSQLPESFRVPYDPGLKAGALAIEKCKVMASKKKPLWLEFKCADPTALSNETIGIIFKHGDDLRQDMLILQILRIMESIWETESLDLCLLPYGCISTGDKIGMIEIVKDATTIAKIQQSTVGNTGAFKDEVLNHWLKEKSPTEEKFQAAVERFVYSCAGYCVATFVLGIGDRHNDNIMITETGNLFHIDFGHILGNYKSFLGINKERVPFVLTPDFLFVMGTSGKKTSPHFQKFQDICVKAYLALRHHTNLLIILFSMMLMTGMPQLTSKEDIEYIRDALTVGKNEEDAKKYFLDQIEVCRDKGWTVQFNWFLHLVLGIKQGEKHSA

SMILES | IC50
CC(=O)Nc1nc2c(s1)-c1c(c(C3CC3)nn1-c1ccc(C(=O)N(C)[C@H]3CC[C@@H](N4CCCC4)CC3)cc1C)CC2 | < 600 nM
CC(=O)Nc1nc2c(s1)-c1c(c(C3CC3)nn1-c1ccc(C(=O)N[C@@H]3CCN(C4CCCC4)C3)cc1C)CC2 | < 600 nM
CC(=O)Nc1nc2c(s1)-c1c(c(C3CC3)nn1-c1ccc(C(=O)N3CC[C@H](CN4CCCC4)C3)c(Cl)c1)CC2 | < 600 nM
CCCN1CCC(NC(=O)c2ccc(-n3nc(C4(C)CC4)c4c3-c3sc(NC(C)=O)nc3CC4)c(Cl)c2)CC1 | < 600 nM
CC(=O)Nc1nc2c(s1)-c1c(c(C3CC3)nn1-c1ccc(C(=O)N(C)C3CCC(N4CCCC4)CC3)c(F)c1)CC2 (centres undefined) | < 600 nM
CC(=O)Nc1nc2c(s1)-c1c(c(C3CC3)nn1-c1ccc(CC(=O)N[C@H]3CC[C@@H](N4CCCC4)CC3)cc1Cl)CC2 | < 600 nM
CC(=O)Nc1nc2c(s1)-c1c(c(C3CC3)nn1-c1ccc(C(=O)N[C@H]3CN4CCC3CC4)c(Cl)c1)CC2 | < 600 nM
CC(=O)Nc1nc2c(s1)-c1c(c(C3CC3)nn1-c1ccc(C(=O)N(C)[C@H]3CC[C@@H](N4CCCC4)CC3)cc1F)CC2 | < 600 nM
CC(=O)Nc1nc2c(s1)-c1c(c(C3CC3)nn1-c1ccc(C(=O)N[C@@H]3CCN(C4CCCCC4)C3)c(C)c1)CC2 | < 600 nM
CC(=O)Nc1nc2c(s1)-c1c(c(C3CC3)nn1-c1ccc(C(=O)NCC3CCN(C4CCCC4)CC3)cc1Cl)CC2 | < 600 nM
CC(=O)Nc1nc2c(s1)-c1c(c(C3CC3)nn1[C@H]1CC[C@@H](C(=O)NC3CCN(C4CCCC4)CC3)CC1)CC2 | < 600 nM
CCN(C(=O)c1ccc(-n2nc(C3CC3)c3c2-c2sc(NC(C)=O)nc2CC3)c(Cl)c1)[C@H]1CC[C@@H](N2CCCC2)CC1 | < 600 nM
CC(=O)Nc1nc2c(s1)-c1c(c(C3CC3)nn1-c1ccc(C(=O)N[C@@H]3CCN(C4CCCC4)C3)c(Cl)c1)CC2 | < 600 nM
CC(=O)Nc1nc2c(s1)-c1c(c(C3CC3)nn1-c1ccc(C(=O)N[C@H]3CC[C@@H](N(C)CC4CCCC4)CC3)cc1F)CC2 | < 600 nM
CC(=O)Nc1nc2c(s1)-c1c(c(C3(C)CC3)nn1-c1ccc(C(=O)N(C)[C@H]3CC[C@@H](N4CCCC4)CC3)cc1Cl)CC2 | < 600 nM
CC(=O)Nc1nc2c(s1)-c1c(c(C3CC3)nn1-c1ccc(C(=O)N[C@@H]3CCN(C4CCCCC4)C3)c(Cl)c1)CC2 | < 600 nM
CC(=O)Nc1nc2c(s1)-c1c(c(C3CC3)nn1-c1ccc(C(=O)N[C@H]3CC[C@@H](N4CCCCC4)CC3)cc1C)CC2 | < 600 nM
COc1cc(-n2nc(C3CC3)c3c2-c2sc(NC(C)=O)nc2CC3)ccc1C(=O)N(C)C1CCN(C2CCCC2)CC1 | < 600 nM
COc1cc(-n2nc(C3CC3)c3c2-c2sc(NC(C)=O)nc2CC3)ccc1C(=O)N1CCC(N(C)C2CCCC2)CC1 | < 600 nM
CC(=O)Nc1nc2c(s1)-c1c(c(C3CC3)nn1-c1ccc(N)cc1Cl)CC2 | < 600 nM
CC(=O)Nc1nc2c(s1)-c1c(c(C3CC3)nn1-c1ccc(C(=O)N3CC[C@H](CN4CCCC4)C3)cc1Cl)CC2 | < 600 nM
CC(=O)Nc1nc2c(s1)-c1c(c(C3CC3)nn1-c1ccc(C(=O)N(C)[C@@H]3CCN(C4CCCC4)C3)cc1Cl)CC2 | < 600 nM
CC(=O)Nc1nc2c(s1)-c1c(c(C3CC3)nn1-c1ccccc1C)CC2 | < 600 nM
CC(=O)Nc1nc2c(s1)-c1c(c(C3CC3)nn1-c1ccc(C(=O)NC3CCN(C4CCCC4)CC3)c(Cl)c1)CC2 | < 600 nM
CC(=O)Nc1nc2c(s1)-c1c(c(C3CC3)nn1-c1ccc(C(=O)N(C)CC3CCN(C4CCCC4)CC3)c(Cl)c1)CC2 | < 600 nM

SMILES | IC50
CC(=O)Nc1nc2c(s1)-c1c(c(C3CC3)nn1-c1ccc(C(=O)NC3CCN(C4CCOCC4)CC3)cc1F)CC2 | < 600 nM
CC(=O)Nc1nc2c(s1)-c1c(c(C3CCC3)nn1-c1ccc(C(=O)N(C)[C@H]3CC[C@@H](N4CCCC4)CC3)cc1Cl)CC2 | < 600 nM
CC(=O)Nc1nc2c(s1)-c1c(c(C3CCCC3)nn1-c1ccc(C(=O)NC3CCN(C4CCCC4)CC3)cc1Cl)CC2 | < 600 nM
CC(=O)Nc1nc2c(s1)-c1c(c(C3CCC3)nn1-c1ccccc1Cl)CC2 | < 600 nM
CCCN1CCC(CNc2ccc(-n3nc(C4CC4)c4c3-c3sc(NC(C)=O)nc3CC4)c(Cl)c2)CC1 | < 600 nM
CCCN1CC[C@@H](NC(=O)c2ccc(-n3nc(C4CC4)c4c3-c3sc(NC(C)=O)nc3CC4)cc2F)C1 | < 600 nM
CC(=O)Nc1nc2c(s1)-c1c(c(C3CC3)nn1[C@H]1CC[C@H](C(=O)NC3CCN(C4CCCC4)CC3)CC1)CC2 | < 600 nM
CC(=O)Nc1nc2c(s1)-c1c(c(C3CC3)nn1-c1ccc(C(=O)N[C@H]3CC[C@@H](N(C)CC4CC4)CC3)cc1Cl)CC2 | < 600 nM
CC(=O)Nc1nc2c(s1)-c1c(c(C3CC3)nn1C1CCN(C(=O)C3CCN(CC4CCCC4)CC3)CC1)CC2 | < 600 nM
CC(=O)Nc1nc2c(s1)-c1c(c(C3CC3)nn1C1CCN(C(=O)N3CCN(C4CCCC4)CC3)CC1)CC2 | < 600 nM
CC(=O)Nc1nc2c(s1)-c1c(c(C3CC3)nn1-c1ccc(C(=O)N[C@H]3CCN(CC4CCCC4)C3)cc1F)CC2 | < 600 nM
CC(=O)Nc1nc2c(s1)-c1c(c(C3CC3)nn1-c1ccc(C(=O)N[C@@H]3CN4CCC3CC4)c(Cl)c1)CC2 | < 600 nM
CC(=O)Nc1nc2c(s1)-c1c(c(C3CC3)nn1-c1ccc(C(=O)N(C)C3CCN(C)CC3)cc1Cl)CC2 | < 600 nM
CCCN1CCC(NC(=O)c2ccc(-n3nc(C4CC4)c4c3-c3sc(NC(C)=O)nc3CC4)cc2F)CC1 | < 600 nM
CC(=O)Nc1nc2c(s1)-c1c(c(C3CC3)nn1C1CCC(C(=O)NC3CCN(CC4CCCC4)CC3)CC1)CC2 (centres undefined) | < 600 nM
CC(=O)Nc1nc2c(s1)-c1c(c(C3CC3)nn1-c1ccc(C(=O)N[C@@H]3CCN(C4CCCCC4)C3)c(F)c1)CC2 | < 600 nM
CC(=O)Nc1nc2c(s1)-c1c(c(C3CCC3)nn1-c1ccc(C(=O)NC3CCN(CC4CCCC4)CC3)cc1Cl)CC2 | < 600 nM
CC(=O)Nc1nc2c(s1)-c1c(c(C3CC3)nn1-c1ccc(C(=O)N[C@H]3CC[C@@H](N(C)CC4CC4)CC3)cc1F)CC2 | < 600 nM
CC(=O)Nc1nc2c(s1)-c1c(c(C3CC3)nn1-c1ccc(C(=O)N[C@H]3CC[C@@H](N(C)CC4CCCC4)CC3)c(Cl)c1)CC2 | < 600 nM
COc1cc(-n2nc(C3CC3)c3c2-c2sc(NC(C)=O)nc2CC3)ccc1C(=O)N(C)C1CCC(N2CCCC2)CC1 (centres undefined) | < 600 nM
CC(=O)Nc1nc2c(s1)-c1c(c(C3CC3)nn1-c1ccc(C(=O)N(C)[C@H]3CC[C@@H](N4CCCCC4)CC3)cc1C)CC2 | < 600 nM
CC(=O)Nc1nc2c(s1)-c1c(c(C3CC3)nn1-c1ccc(C(=O)NC3CCN(C4CCOCC4)CC3)cc1Cl)CC2 | < 600 nM
CC(=O)Nc1nc2c(s1)-c1c(c(C3(C)CC3)nn1-c1ccccc1Cl)CC2 | < 600 nM
CC(=O)Nc1nc2c(s1)-c1c(c(C3(C)CC3)nn1-c1ccc(C(=O)NC3CCN(C(C)C)CC3)cc1Cl)CC2 | < 600 nM
CC(=O)Nc1nc2c(s1)-c1c(c(C3CC3)nn1-c1ccc(C(=O)N[C@H]3CC[C@@H](N4CCOCC4)CC3)cc1C)CC2 | < 600 nM

SMILES | IC50
CC(=O)Nc1nc2c(s1)-c1c(c(C3CC3)nn1-c1ccc(C(=O)N(C)C3CCC(N4CCCCC4)CC3)c(F)c1)CC2 (centres undefined) | < 600 nM
CC(=O)Nc1nc2c(s1)-c1c(c(C3CC3)nn1-c1ccc(C(=O)N[C@@H]3CCN(CC4CCCC4)C3)cc1Cl)CC2 | < 600 nM
CC(=O)Nc1nc2c(s1)-c1c(c(C3CC3)nn1-c1ccc(C(=O)NCC3CCN(CC4CCCC4)CC3)cc1Cl)CC2 | < 600 nM
CC(=O)Nc1nc2c(s1)-c1c(c(C3CC3)nn1-c1ccc(C(=O)N(C)C3CCN(C4CCCC4)C3)c(Cl)c1)CC2 (centres undefined) | < 600 nM
CC(=O)Nc1nc2c(s1)-c1c(c(C3CC3)nn1C1CCC(C(=O)N(C)[C@H]3CC[C@H](N4CCCC4)CC3)CC1)CC2 (some centres undefined) | < 600 nM
CNC(=O)c1ccc(-n2nc(C3CCC3)c3c2-c2sc(NC(C)=O)nc2CC3)c(Cl)c1 | < 600 nM
CC(=O)Nc1nc2c(s1)-c1c(c(C3CC3)nn1-c1ccc(C(=O)N(C)C3CCC(N(C)CC4CCCC4)CC3)c(F)c1)CC2 (centres undefined) | < 600 nM
CCCN1CC[C@@H](NC(=O)c2ccc(-n3nc(C4CC4)c4c3-c3sc(NC(C)=O)nc3CC4)c(C)c2)C1 | < 600 nM
CC(=O)Nc1nc2c(s1)-c1c(c(C3CC3)nn1-c1ccc(C(=O)N3CCC(N(C)C4CCCC4)CC3)c(Cl)c1)CC2 | < 600 nM
CC(=O)Nc1nc2c(s1)-c1c(c(C3CC3)nn1-c1ccc(C(=O)N(C)[C@H]3CC[C@@H](N4CCCC4)CC3)c(Cl)c1)CC2 | < 600 nM
CC(=O)Nc1nc2c(s1)-c1c(c(C3CC3)nn1C1CCN(C(=O)N3CCC(N4CCCC4)CC3)CC1)CC2 | < 600 nM
CC(=O)Nc1nc2c(s1)-c1c(c(C3CC3)nn1-c1ccc(C(=O)N[C@H]3CC[C@@H](N4CCCCC4)CC3)c(F)c1)CC2 | < 600 nM
CC(=O)Nc1nc2c(s1)-c1c(c(C3CC3)nn1-c1ccc(C(=O)NC3CCN(C4CCCC4)CC3)c(C)c1)CC2 | < 600 nM
CC(=O)Nc1nc2c(s1)-c1c(c(C3CC3)nn1-c1ccc(C(=O)NC[C@@H]3CCN(CC4CCCC4)C3)c(Cl)c1)CC2 | < 600 nM
CC(=O)Nc1nc2c(s1)-c1c(c(C3CC3)nn1-c1ccc(C(=O)N(C)[C@H]3CC[C@@H](N(C)CC4CC4)CC3)c(F)c1)CC2 | < 600 nM
CC(=O)Nc1nc2c(s1)-c1c(c(C3CC3)nn1-c1ccc(C(=O)NCc3ccncc3)cc1Cl)CC2 | < 600 nM
CCCN1CC[C@@H](NC(=O)c2ccc(-n3nc(C4CC4)c4c3-c3sc(NC(C)=O)nc3CC4)c(F)c2)C1 | < 600 nM
CC(=O)Nc1nc2c(s1)-c1c(c(C3CC3)nn1-c1ccc(C(=O)N[C@H]3CC[C@@H](N4CCCCC4)CC3)cc1F)CC2 | < 600 nM
CC(=O)Nc1nc2c(s1)-c1c(c(C3CC3)nn1-c1ccc(C(=O)N[C@H]3CC[C@@H](N4CCCCC4)CC3)c(C)c1)CC2 | < 600 nM
CC(=O)Nc1nc2c(s1)-c1c(c(C3CCCC3)nn1-c1ccc(C(=O)NC3CCN(CC4CCCC4)CC3)cc1Cl)CC2 | < 600 nM
CCCN1CCC(NC(=O)c2ccc(-n3nc(C4CC4)c4c3-c3sc(NC(C)=O)nc3CC4)cc2Cl)CC1 | < 600 nM
CC(=O)Nc1nc2c(s1)-c1c(c(C3CC3)nn1-c1ccc(C(=O)N[C@H]3CC[C@@H](N(C)CC4CCCC4)CC3)c(C)c1)CC2 | < 600 nM
CC(=O)Nc1nc2c(s1)-c1c(c(C3CC3)nn1-c1ccc(C(=O)NC3CCN(CC4CCCC4)CC3)cc1F)CC2 | < 600 nM
CC(=O)Nc1nc2c(s1)-c1c(c(C3CC3)nn1-c1ccc(C(=O)NC3CCN(CC4CCCC4)CC3)c(F)c1)CC2 | < 600 nM
